According to ChEMBL document CHEMBL1201862, “PubChem BioAssay data set” (2004):
Calls of active or inactive are those of the source.

Experiments:
[1] = target: Delta-type opioid receptor (Homo sapiens, UniProt P41143); assay: Counterscreen for agonists of heterodimerization of the mu 1 (OPRM1) and delta 1 (OPRD1) opioid receptors: Luminescence-based cell-based high throughput dose response assay to identify agonists of OPRD1 homodimerization. [Related pubchem assays (depositor defined):AID504326, AID504355, AID504692, AID504904, AID504905]; assay type: functional
Delta-type opioid receptor, sequence (P41143 whole entry): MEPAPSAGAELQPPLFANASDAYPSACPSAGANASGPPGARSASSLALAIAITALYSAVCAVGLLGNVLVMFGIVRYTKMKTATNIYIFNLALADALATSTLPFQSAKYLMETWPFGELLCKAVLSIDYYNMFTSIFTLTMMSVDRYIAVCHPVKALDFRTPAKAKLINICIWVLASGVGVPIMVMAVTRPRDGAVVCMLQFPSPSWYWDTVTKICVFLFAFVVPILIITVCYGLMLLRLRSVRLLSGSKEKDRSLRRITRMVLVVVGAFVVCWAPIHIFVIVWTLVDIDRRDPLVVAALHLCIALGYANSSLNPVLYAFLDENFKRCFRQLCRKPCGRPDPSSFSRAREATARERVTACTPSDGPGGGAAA

[2] = target: 5-hydroxytryptamine receptor 5A (Homo sapiens, UniProt P47898); assay: Counterscreen for agonists of OPRM1-OPRD1 heterodimerization: luminescence-based cell-based high throughput dose response assay to identify agonists of 5-hydroxytryptamine (serotonin) 5A receptor (HTR5A). [Related pubchem assays (depositor defined):AID504326, AID504355, AID504692, AID504904, AID504905]; assay type: functional
5-hydroxytryptamine receptor 5A, sequence (P47898 whole entry, the tested form may be a part): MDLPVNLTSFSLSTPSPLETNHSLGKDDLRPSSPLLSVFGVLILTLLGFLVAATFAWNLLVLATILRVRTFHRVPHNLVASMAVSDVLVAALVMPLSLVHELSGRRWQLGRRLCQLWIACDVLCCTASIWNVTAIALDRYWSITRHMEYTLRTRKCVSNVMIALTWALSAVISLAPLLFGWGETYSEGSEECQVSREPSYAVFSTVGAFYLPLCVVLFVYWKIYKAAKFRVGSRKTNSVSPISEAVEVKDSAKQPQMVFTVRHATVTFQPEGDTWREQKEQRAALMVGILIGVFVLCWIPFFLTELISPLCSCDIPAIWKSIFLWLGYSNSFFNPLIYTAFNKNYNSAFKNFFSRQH

[3] = blockers of HIV-1 envelope-mediated cell-cell fusion – cherry-pick, dose response (AID 652057); assay type: functional, cell-based
Cytochrome P450 2D6 = Cytochrome P450 2D6 (Homo sapiens, UniProt P10635);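 further: CYP2D6 member of a cytochrome P450 panel assay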
Cytochrome P450 2D6, sequence (P10635 whole entry, the tested form may be a part): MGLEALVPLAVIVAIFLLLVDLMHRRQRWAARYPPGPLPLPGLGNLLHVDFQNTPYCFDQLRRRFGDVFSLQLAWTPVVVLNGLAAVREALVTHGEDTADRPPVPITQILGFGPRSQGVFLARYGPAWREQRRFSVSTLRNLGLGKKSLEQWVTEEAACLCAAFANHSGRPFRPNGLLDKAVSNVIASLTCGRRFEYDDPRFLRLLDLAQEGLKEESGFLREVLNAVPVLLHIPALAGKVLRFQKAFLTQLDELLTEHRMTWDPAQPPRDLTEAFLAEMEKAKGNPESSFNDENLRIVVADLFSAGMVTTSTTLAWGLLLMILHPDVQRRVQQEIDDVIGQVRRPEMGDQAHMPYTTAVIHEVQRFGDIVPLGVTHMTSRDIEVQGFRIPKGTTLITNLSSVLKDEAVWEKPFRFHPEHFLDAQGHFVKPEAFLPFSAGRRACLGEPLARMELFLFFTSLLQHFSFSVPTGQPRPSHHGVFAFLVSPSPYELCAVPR

[4] = viability loss in CEM21 cells – cell-based, CellTiter-Glo luminescence, cherry-picked, cytotoxicity control for viral fusion inhibitor project, dose response (AID 652042); assay type: functional;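 further: potency for signal decrease meaning cytotoxicity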
Mu-type opioid receptor = Mu-type opioid receptor (Homo sapiens, UniProt P35372); assay: Counterscreen for agonists of heterodimerization of the mu 1 (OPRM1) and delta 1 (OPRD1) opioid receptors: Luminescence-based cell-based high throughput dose response assay to identify agonists of OPRM1 homodimerization.; assay type: functional;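 further: U2OS cells expressing OPRM1 and beta-arrestin as split beta-galactosidase partners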
Mu-type opioid receptor, sequence (P35372 whole entry): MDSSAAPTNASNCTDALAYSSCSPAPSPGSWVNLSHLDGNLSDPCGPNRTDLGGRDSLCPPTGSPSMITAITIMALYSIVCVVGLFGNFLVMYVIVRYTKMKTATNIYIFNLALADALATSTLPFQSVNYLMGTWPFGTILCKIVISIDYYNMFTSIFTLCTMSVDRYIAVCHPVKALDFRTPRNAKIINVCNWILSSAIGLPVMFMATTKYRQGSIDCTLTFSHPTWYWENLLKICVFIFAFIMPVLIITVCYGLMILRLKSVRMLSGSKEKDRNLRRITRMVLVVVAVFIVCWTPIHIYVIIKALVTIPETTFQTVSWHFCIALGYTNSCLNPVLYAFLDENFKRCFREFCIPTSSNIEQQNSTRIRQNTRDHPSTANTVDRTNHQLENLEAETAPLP

Paired box protein Pax-8 = Paired box protein Pax-8 (Homo sapiens, UniProt Q06710); assay: PAX8 transcriptional activity inhibition in RMG-I – RMG-I cells, luciferase, cherry-pick, dose response (AID 687027); assay type: functional, cell-based;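 further: luciferase reporter driven by Pax8 target thyroperoxidase promoter measured by SteadyGlo luminescence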
Paired box protein Pax-8, sequence (Q06710 whole entry): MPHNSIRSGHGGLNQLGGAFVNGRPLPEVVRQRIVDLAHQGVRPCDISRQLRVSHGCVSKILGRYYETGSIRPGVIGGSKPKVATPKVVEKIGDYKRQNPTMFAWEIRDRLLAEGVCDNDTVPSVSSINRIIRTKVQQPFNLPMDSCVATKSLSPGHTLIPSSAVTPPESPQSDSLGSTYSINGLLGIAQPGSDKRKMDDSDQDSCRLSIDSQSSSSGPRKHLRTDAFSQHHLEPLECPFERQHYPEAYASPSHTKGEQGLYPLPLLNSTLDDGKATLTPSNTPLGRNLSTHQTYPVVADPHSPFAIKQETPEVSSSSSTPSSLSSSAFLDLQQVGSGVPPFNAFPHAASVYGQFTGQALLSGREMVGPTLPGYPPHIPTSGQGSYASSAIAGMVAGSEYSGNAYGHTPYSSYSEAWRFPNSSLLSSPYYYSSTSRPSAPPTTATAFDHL

[5] = target: Voltage-gated inwardly rectifying potassium channel KCNH2 (Homo sapiens, UniProt Q12809); settings: Potency;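 further: confirmatory quantitative high-throughput screen measuring inhibition of hERG channel activity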
Voltage-gated inwardly rectifying potassium channel KCNH2, sequence (Q12809 whole entry): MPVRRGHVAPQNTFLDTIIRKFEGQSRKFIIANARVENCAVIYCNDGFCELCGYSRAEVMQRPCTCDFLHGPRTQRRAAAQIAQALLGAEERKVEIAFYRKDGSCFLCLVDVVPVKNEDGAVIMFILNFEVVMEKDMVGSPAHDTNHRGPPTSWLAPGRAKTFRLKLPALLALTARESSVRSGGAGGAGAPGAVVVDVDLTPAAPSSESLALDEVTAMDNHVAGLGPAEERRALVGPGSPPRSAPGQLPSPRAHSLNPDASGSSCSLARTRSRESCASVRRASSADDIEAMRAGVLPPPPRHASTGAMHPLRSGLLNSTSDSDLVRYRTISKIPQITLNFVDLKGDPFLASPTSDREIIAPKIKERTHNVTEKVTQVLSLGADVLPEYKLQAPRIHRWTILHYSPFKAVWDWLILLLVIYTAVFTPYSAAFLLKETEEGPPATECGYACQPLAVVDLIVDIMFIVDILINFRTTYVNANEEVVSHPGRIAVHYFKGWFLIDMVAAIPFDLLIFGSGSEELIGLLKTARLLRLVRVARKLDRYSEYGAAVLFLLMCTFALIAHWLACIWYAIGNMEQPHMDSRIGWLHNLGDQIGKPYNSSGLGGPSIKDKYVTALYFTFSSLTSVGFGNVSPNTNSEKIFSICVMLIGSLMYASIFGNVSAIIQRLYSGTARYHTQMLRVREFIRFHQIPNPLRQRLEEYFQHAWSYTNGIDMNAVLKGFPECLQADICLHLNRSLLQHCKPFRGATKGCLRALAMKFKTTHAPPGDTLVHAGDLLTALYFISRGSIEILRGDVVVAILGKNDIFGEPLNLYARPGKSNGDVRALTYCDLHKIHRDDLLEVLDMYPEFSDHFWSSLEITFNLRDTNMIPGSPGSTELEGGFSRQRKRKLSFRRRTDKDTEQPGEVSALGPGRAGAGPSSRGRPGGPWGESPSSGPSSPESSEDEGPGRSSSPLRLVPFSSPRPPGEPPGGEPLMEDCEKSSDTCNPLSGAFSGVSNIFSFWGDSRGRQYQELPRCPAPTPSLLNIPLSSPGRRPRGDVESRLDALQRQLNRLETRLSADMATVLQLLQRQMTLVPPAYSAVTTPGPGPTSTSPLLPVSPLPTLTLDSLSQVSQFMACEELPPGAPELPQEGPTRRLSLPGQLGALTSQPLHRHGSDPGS

[6] = target: Glycogen synthase kinase-3 beta (Homo sapiens, UniProt P49841); assay: Inhibition of Human GSK-3 beta Activity Measured in Biochemical System Using Microfluidics - 2063-05_Inhibitor_Dose_DryPowder_Activity. [Related pubchem assays (depositor defined):AID2709]
Glycogen synthase kinase-3 beta, sequence (P49841 whole entry): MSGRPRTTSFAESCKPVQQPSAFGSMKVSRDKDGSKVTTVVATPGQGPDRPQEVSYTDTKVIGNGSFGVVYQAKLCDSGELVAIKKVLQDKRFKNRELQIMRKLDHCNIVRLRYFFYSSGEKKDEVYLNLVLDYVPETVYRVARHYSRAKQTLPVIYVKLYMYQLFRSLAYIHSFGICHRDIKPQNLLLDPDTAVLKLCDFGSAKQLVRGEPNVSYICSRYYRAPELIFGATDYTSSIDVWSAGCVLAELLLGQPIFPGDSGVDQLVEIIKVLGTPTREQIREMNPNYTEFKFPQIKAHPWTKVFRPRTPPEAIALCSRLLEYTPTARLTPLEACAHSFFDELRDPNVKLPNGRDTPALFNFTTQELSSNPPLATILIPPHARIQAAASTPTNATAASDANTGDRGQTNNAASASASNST

[7] = target: Glycogen synthase kinase-3 alpha (Homo sapiens, UniProt P49840); assay: Inhibition of Human GSK-3 alpha Activity Measured in Biochemical System Using Microfluidics - 2063-06_Inhibitor_Dose_DryPowder_Activity. [Related pubchem assays (depositor defined):AID2709]
Glycogen synthase kinase-3 alpha, sequence (P49840 whole entry): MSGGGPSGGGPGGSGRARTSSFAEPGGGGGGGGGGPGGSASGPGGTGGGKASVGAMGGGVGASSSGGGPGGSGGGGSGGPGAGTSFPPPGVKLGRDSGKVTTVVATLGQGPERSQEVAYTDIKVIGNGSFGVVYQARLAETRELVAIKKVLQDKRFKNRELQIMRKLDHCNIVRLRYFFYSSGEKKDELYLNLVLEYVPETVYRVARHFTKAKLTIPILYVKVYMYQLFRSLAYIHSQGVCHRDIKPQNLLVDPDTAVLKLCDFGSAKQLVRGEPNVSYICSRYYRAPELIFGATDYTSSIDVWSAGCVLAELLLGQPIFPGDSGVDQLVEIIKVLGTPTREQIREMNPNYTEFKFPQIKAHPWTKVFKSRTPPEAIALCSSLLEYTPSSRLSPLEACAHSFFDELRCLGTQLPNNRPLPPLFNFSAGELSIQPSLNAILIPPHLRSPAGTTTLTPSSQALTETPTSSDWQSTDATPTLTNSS

Candida albicans [8] = assay: resistant Candida growth with fluconazole co-treatment – CaCi-8 strain, Alamar Blue, dry powder, set 2, dose response (AID 488909); assay type: functional, organism-based
Candida albicans [9] = assay: fluconazole-resistant Candida strain growth inhibitors – CaCi-8 strain, dry powder, set 4, dose response (AID 488950); assay type: functional, organism-based
Candida albicans [10] = assay: C. albicans growth inhibition with fluconazole – CaCi-2 strain, Alamar Blue, dry powder, set 4, dose response (AID 488943); assay type: functional, organism-based
Candida albicans [11] = assay: Candida growth reduction in fluconazole presence – CaCi-2 strain, Alamar Blue, dry powder, set 2, antifungal resistance reversal project, dose response (AID 488930); assay type: functional, organism-based
[12] = Luminescence Cell-Based Dose Retest to Confirm Inhibitors of Cancer Stem Cells. [Related pubchem assays (depositor defined):AID2717, AID2721]; assay type: functional; settings: Homo sapiens
INS1 = assay: INS-1E survival protection against cytokine death – cell-based, luminescence, retest, dose response (AID 449756); assay type: functional; settings: Rattus norvegicus;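 further: cell death triggered by IL-1 beta plus TNF-alpha plus IFN-gamma mixture; protective hits raise ATP signal compared with cytokine alone wells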
[13] = viability loss of HMLE_sh_eGFP cells – cell-based, luminescence, counter-screen for HMLE_sh_ECad selective toxicity project, dose response (AID 463074); assay type: functional, Homo sapiens;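 further: HMLE human mammary epithelial cells expressing control shRNA against eGFP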
HEK293 [14] = assay: SAR Analysis of small molecule inhibitors of T-cell specific antigen receptor-induced NF-kB activation in a HEK-293T cell line using a luminescence assay - Set 2. [Related pubchem assays (depositor defined):AID435003, AID435012, AID489026]; assay type: functional, cell-based; settings: Homo sapiens
HEK293 [15] = assay: HEK293T cell viability loss, resazurin readout – resazurin fluorescence, cytotoxicity control for NF-kB activator project, SAR follow-up (AID 493251); assay type: functional, cell-based; settings: Homo sapiens
Jurkat = assay: SAR Analysis of small molecule inhibitors of T-cell specific antigen receptor-induced NF-kB activation in a Jurkat cell line using a luminescence assay - Set 2. [Related pubchem assays (depositor defined):AID435003, AID435012, AID465]; assay type: functional, cell-based; settings: Homo sapiens

In the case of `CCN(c1nc(N)c(C(=O)NC(=N)N)nc1Cl)C(C)C` [5-(N-ETHYL-N-ISOPROPYL)AMILORIDE], the EC50 [1] is reported as 64.1 µM (inactive), the EC50 [2] is reported as 85.8 µM (inactive) and the AC50 [3] is reported as 1.98 µM (active). The AC50 (Cytochrome P450 2D6) was 31.6 µM (inconclusive), the AC50 [4] was 63.8 µM (active) and the EC50 (Mu-type opioid receptor) was > 92.5 µM (inactive). The AC50 (Paired box protein Pax-8) was 20.9 µM (active) and the AC50 [5] was 35.5 µM (inconclusive).

For `COC(=O)c1ccc(CSc2ccc3nnc(-c4ccc(OC)cc4)n3n2)o1`, the AC50 [6] was 1.94 µM (active) and the AC50 [7] was 6.84 µM (active).

In the case of `O=C(c1ccc(Cl)nc1)N1CCN(c2ccnc3cc(Cl)ccc23)CC1`, the AC50 (Candida albicans [8]) is reported as < 0.195 µM (active), the AC50 (Candida albicans [9]) is reported as 7.3 µM (active) and the AC50 (Candida albicans [10]) is reported as 3.16 µM (active). The AC50 (Candida albicans [11]) was 2.99 µM (active).

With `c1ccc(N2CCN(CC3CCCCC3)CC2)cc1` the AC50 [12] was 25.3 µM (active), the AC50 (INS1) was 91.4 µM (active) and the AC50 [13] was 95.2 µM (active).

In the case of `CC(C)(C)NC(=O)CCc1nc(-c2ccc(C(C)(C)C)cc2)no1`, the IC50 (HEK293 [14]) is reported as 6.68 µM (active), the IC50 (HEK293 [15]) is reported as 39 µM (inactive) and the IC50 (Jurkat) is reported as 2.77 µM (active).
